Test results reported in patent US12594285B2, “Compositions and methods for protecting against airborne pathogens and irritants” (APPLIED BIOLOGICAL LABORATORIES, INC., priority 2016, dated 2026).

Tests used:
[1] = system: Human Rhinovirus A16 (clinical strain: QCHRV.16); test: Apical Rhinovirus replication by quantitative RT-PCR (Example 4); assay type: cell-based; conditions: 3.5, 24 and 48 hours pi; formulations applied apically at 0, 3.5 and 24 h; Rupintrivir 5 μM in basal medium
[2] = system: Human Rhinovirus A16 (clinical strain: QCHRV.16); test: Apical Rhinovirus replication by quantitative RT-PCR (Example 6); assay type: cell-based; conditions: Example 6; Rupintrivir 5 μM in basal medium; 3.5, 24 and 48 hours pi
[3] = system: MucilAir™ 3D model of human airway epithelium infected with Rhinovirus A16; test: TEER tissue integrity, MucilAir inoculated with Rhinovirus A16 (Example 4); conditions: toxic positive control, 10% Triton X-100, after cell damage
[4] = system: Influenza A H1N1 (clinical strain: A/California/7/09); test: Apical Influenza replication by quantitative RT-PCR (Example 5); assay type: cell-based; conditions: 3.5, 24 and 48 hours pi; Oseltamivir 10 μM in basal medium

CCOC(=O)/C=C/[C@H](C[C@@H]1CCNC1=O)NC(=O)[C@@H](CC(=O)[C@@H](NC(=O)c1cc(C)on1)C(C)C)Cc1ccc(F)cc1 [Rupintrivir]
Rhinovirus A16 replication (genome copy number, apical washes) [1]: inhibited | Rhinovirus A16 replication (genome copy number, apical washes) [2]: inhibited

Triton X-100
TEER [3]: below 100 Ωcm^2

CCOC(=O)C1=C[C@@H](OC(CC)CC)[C@H](NC(C)=O)[C@@H](N)C1 [Oseltamivir]
Influenza A H1N1 replication (genome copy number, apical washes) [4]: inhibited
